Publication PMC6337391 (Molecules, 2019)

Experiments:
[1] = Reducing activity with the stable radical DPPH
Description: The chalcones were studied for the antioxidant activity (reducing activity RA%) by the use of the stable free radical 2,2-diphenyl-1-picrylhydrazyl radical (DPPH) at concentrations 0.05 mM after 20 and 60 min (Table 2). In this procedure, the dominant chemical reaction involved is the reduction of the DPPH radical by single electron transfer from the antioxidant. […] For the sake of comparison, we measured the RA% values for the intermediate double ethers d which were included in the Table 2.
To a solution of DPPH (final concentration 0.05 mM) in absolute ethanol an equal volume of the compounds solution in DMSO (stock solution 10 mM) dissolved in ethanol was added. Absolute ethanol was used as a control. The concentrations of the solutions of the compounds were 0.05 and 0.1 mM. The absorbance was recorded at 517 nm at room temperature after 20 and 60 min [29] (Table 2).

[2] = ABTS•+ decolorization assay
Description: The decolorization assay is used to evaluate the antioxidant activity. The ABTS^•+ cationic radical is derived from the direct oxidation of ABTS by potassium persulfate. No involvement of an intermediary radical is observed. The addition of electron-donating antioxidants reduce ABTS^•+.
Stock solutions of the tested compounds in DMSO (10 mM) were diluted. […] aliquots of each sample were added into the ABTS·^+ solution and the absorbance was recorded at room temperature. Trolox was used as a standard.

[3] = Inhibition of linoleic acid lipid peroxidation (AAPH)
Text: The water soluble 2,2′-azobis(2-amidinopropane) hydrochloride (AAPH) generates in vitro free radicals through spontaneous thermal decomposition. […] Overall, chalcones a, b, and c present anti-lipid peroxidation activity. […] The inhibiting activities for the rest b chalcones ranged from 15–44%. The intermediate ethers are moderate inhibitors. […] This might be correlated with the presence of the double C=C–COCH3 group. […] Both have a long ether chain in their structure.
In an aqueous solution spectrophotometrically at 234 nm the production of conjugated diene hydro peroxide by oxidation of sodium linoleate was monitored and recorded according to our previous published experimental conditions, using 10 µL of the 16 mM sodium linoleate solution added to the UV cuvette containing 930 μL of 0.05 M phosphate buffer, pH 7.4 pre-thermostated at 37 °C, under air by the addition of 50 μL of 40 mM AAPH solution, which was used as a free radical initiator. Ten microliters (10 μL) of the appropriate solutions of the tested compounds were added in the mixture, whereas same level of DMSO was used as a blank for the measurement of lipid oxidation. The rate of oxidation at 37 °C was monitored by recording the increase in absorption at 234 nm caused by conjugated diene hydro peroxides.

soybean lipoxygenase = biological target: T1, soybean lipoxygenase (Glycine max, UniProt P08170); test: biochemical; type: biochemical; settings: soybean LOX, 100 μM
T1 sequence (P08170 1-839): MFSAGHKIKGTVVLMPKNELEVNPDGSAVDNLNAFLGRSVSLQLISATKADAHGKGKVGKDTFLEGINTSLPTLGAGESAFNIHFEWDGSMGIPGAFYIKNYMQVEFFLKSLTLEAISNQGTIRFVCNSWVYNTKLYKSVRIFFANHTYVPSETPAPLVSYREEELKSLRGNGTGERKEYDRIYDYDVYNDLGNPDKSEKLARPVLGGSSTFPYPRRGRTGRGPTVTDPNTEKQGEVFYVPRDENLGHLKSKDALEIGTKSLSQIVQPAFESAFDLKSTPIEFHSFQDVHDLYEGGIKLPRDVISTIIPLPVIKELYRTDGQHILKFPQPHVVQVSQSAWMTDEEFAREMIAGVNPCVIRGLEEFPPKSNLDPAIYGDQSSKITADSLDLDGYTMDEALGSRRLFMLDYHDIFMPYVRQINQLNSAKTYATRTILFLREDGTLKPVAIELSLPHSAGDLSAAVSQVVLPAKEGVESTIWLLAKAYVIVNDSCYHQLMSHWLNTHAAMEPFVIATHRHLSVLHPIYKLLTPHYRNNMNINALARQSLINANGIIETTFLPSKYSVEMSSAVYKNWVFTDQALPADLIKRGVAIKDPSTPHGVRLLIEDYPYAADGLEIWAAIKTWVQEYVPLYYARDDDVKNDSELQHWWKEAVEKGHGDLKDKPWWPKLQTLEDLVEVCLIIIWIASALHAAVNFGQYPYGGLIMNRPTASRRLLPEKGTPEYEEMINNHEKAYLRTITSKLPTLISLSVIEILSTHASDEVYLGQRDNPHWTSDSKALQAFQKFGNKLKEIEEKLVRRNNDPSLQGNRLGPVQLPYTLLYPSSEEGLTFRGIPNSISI
Text: In our experiments we used soybean lipoxygenase. Designing agents to modulate activities of the variety of so closely homologous enzymes, such as different LOXs, require an intimate knowledge of their 3D structures, as well as information about metabolism of the potential xenobiotics. […] Due to lack of sufficiently-purified human enzymes most of the research has been done on soybean LOX [52, 53]. Although this enzyme is not identical to the mammalian one, it seems that there is a sufficient qualitative correlation between values for enzyme inhibition with the two enzymes.
In vitro study was evaluated as reported previously. The tested compounds as stock solutions were dissolved in DMSO. Ten microliters (10 μL) were incubated at room temperature with sodium linoleate ([…]) and 0.2 mL of enzyme solution (1/9 × 10^−4 w/v in saline) in buffer pH 9 (tris) at room temperature (final volume 1 mL). […] Several concentrations were used for the determination of IC50 values.

[4] = Lipophilicity as RM values by RP-TLC; type: physicochemical; parameters: key: RM = log[(1/Rf) − 1]; settings: methanol/water 70/30, SD < 10%
Text: It is well-documented and discussed in the literature that lipophilicity is a very significant physicochemical property which may critically affect distribution, bioavailability, metabolic activity and elimination, all the useful characteristics for the kinetics of biologically active compounds. Thus, we attempted to determine experimentally the lipophilicity of the synthesized compounds from the RPTLC method as RM values. The method is considered to be a reliable, fast and convenient method for expressing lipophilicity. Moreover, many calculated methods were used in order to predict the logP value.
Reversed phase TLC (RP-TLC) was performed on silica gel plates impregnated with 5% (v/v) liquid paraffin in light petroleum ether. The mobile phase was a methanol/water mixture (70/30, v/v). The plates were developed in closed chromatography tanks saturated with the mobile phase at 24 °C. Spots were detected under UV light. Five individual measurements of Rf values were recorded and used for the determination of RM using the equation RM = log [(1/Rf) − 1]. (Table 3).

[5] = test system: L929 mouse fibroblasts cells; test: Cytotoxicity, propidium iodide fluorescence method; type: cell-based; settings: 24-h incubation
Description: The cytotoxicity of the synthesized derivatives against L929 mouse fibroblasts cells was determined using the propidium iodide (PI) fluorescence method in the presence of different concentrations (1–100 μM) of these compounds. The results are presented in Table 4 in the form of the % cell survival values as PI% for the examined compounds. […] Chalcones c7, c8, c11, and c12 follow.
L929 mouse fibroblasts cells were cultured in EMEM supplemented with 10% horse serum, 2 mM L-glutamine, 1 mM sodium pyruvate, 0.1 mM nonessential amino acids, 1.5 g/L sodium bicarbonate, and 100 μg/mL penicillin–streptomycin at 37 °C in a humidified atmosphere with 5% CO2. L929 cells were plated into 24-well plates at a density […] and allowed to attach and grow for 24 h. The supernatant in each well then replaced with medium containing various concentrations (1, 10, 20, 50 and 100 μM) of compounds a5–12, c5–12, di, and dii–dvi, which presented the more interesting results in the in vitro experiments. After 24-h incubation, the supernatant was removed and the cells were washed with PBS. The cells were detached with 0.25% trypsin, transferred to FACS tubes, and then centrifuged (1600 rpm for 5 min) and the pellet washed with PBS. After washing, the cells in the pellet were incubated with 5 μL propidium iodide (PI) solution (1 mg/mL) for 1 min. The PI fluorescence (cell death) was determined with flow cytometry, FACS Calibur, Coulter Epics XL-MCL (Beckman, Inc., Mount Holly, NJ, USA). The analysis of flow cytometry data was performed with the WinMDI analysis program (Table 4).

Compound	RA% 100 μM 20 min [1] [%]	RA% 100 μM 60 min [1] [%]	ABTS•+ Inhb. % @ 100 μM [2]	AAPH% @ 100 μM (anti-lipid peroxidation) [3] [%]	% LOX Inhb. @ 100 μM (soybean lipoxygenase) [%]	RM [4]	1 μM Average (% pi) ± σ [5] [%]	20 μM Average (% pi) ± σ [5] [%]	50 μM Average (% pi) ± σ [5] [%]	100 μM Average (% pi) ± σ [5] [%]	10 μM Average (% pi) ± σ [5] [%]
O=C(/C=C/c1cccs1)c1ccc(O)cc1 [a5, (E)-1-(4-hydroxyphenyl)-3-(thiophen-2-yl) prop-2-en-1-one]	17	3	No	23	9	−0.62	11.36 ± 0.62	28.32 ± 2.91	36.15 ± 2.33	36.15 ± 2.33	
O=C(/C=C/C=C/c1ccccc1)c1ccc(O)cc1 [a7, (2E,4E)-1-(4-hydroxyphenyl)-5-phenylpenta-2,4-dien-1-one]	19	6	12%	31	4	−0.64	6.85 ± 3.12	9.24 ± 6.49	60.95 ± 0.01	60.95 ± 0.01	9.27 ± 1.9
CC(/C=C/C(=O)c1ccc(O)cc1)=C\c1ccccc1 [a8, (2E,4E)-1-(4-hydroxyphenyl)-4-methyl-5-phenylpenta-2,4-dien-1-one]	6	2	No	32	14	−0.68	1.39 ± 0.1	1.84 ± 2.05	8.15 ± 0.34	8.15 ± 0.34	2.95 ± 1.23
O=C(/C=C/C(Br)=C\c1ccccc1)c1ccc(O)cc1 [a9, (2E,4E)-4-bromo-1-(4-hydroxyphenyl)-5-phenylpenta-2,4-dien-1-one]	10	1	No	33	16	−0.82	0.55 ± 0.09	2.7 ± 0.68	7.59 ± 0.13	7.59 ± 0.13	0.59 ± 0.83
O=C(/C=C/c1ccco1)c1ccc(O)cc1 [a10, (E)-3-(furan-2-yl)-1-(4-hydroxyphenyl) prop-2-en-1-one]	23	10	2%	24	23	−0.06	3.03 ± 0.88	2.39 ± 1.08	17.15 ± 0.32	17.15 ± 0.32	2.25 ± 0.38
O=C(/C=C/C=C/c1ccc([N+](=O)[O-])cc1)c1ccc(O)cc1 [a11, (2E,4E)-1-(4-hydroxyphenyl)-5-(4-nitrophenyl) penta-2,4-dien-1-one]	7	3	14%	55	36	−1.09		18.81 ± 2.57	67.84 ± 6.45	67.84 ± 6.45	6.26 ± 3
